These results are taken from ChEMBL document CHEMBL1201862, “PubChem BioAssay data set” (2004).

Some test systems named below: SF-539; OVCAR-5; SNB-19; HCT-116; U-251; HOP-62; OVCAR-3; NCI/ADR-RES; NCI-H23; Malme-3M; SR; CAKI-1; T47D; SNB-75; IGROV-1; UACC-257; CCRF-CEM; OVCAR-4; SK-OV-3; A498.
Assay in all cases: NCI-60 cell line screen, 48 h

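1) Cells in 96-well plates. 2) Compound, 48 h, 5 concentrations. 3) Linear interpolation between surrounding doses. 4) Unreached endpoint = highest concentration. The concentration for 50% growth inhibition is given as GI50.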 Calls of active or inactive are those of the source. No stated cut-off is given here; in the data, active = GI50 up to about 1.1 µM and inactive = higher. A value given as a limit tells only on which side of the number the result lay.

With `Cc1ncc2c(=O)c3c(oc2n1)c1ccccc1n3Cc1ccccc1`, the GI50 in the test with SF-539 is > 100 µM (inactive); in the test on OVCAR-5, > 100 µM (inactive); with SNB-19, > 100 µM (inactive); in the test on HCT-116, > 100 µM (inactive); in the test with U-251, 75.5 µM (inactive); with HOP-62, 27.4 µM (inactive). The GI50 in the test with OVCAR-3, with NCI/ADR-RES, in the test with NCI-H23, with Malme-3M, in the test with SR and in the test on CAKI-1 was > 100 µM (inactive) throughout. The GI50 with T47D is 7.24 µM (inactive); in the test on SNB-75, 29.5 µM (inactive); with IGROV-1, > 100 µM (inactive); in the test on UACC-257 it was > 100 µM (inactive); in the test with CCRF-CEM, > 100 µM (inactive).

`CC1OC2OC3C(OCC(O)C3O)OC(=O)[C@]34CCC(C)(C)CC3C3=CCC5[C@@]6(C)C[C@H](O)[C@H](OC7OC(CO)C(O)C(O)C7OC7OCC(OC(=O)CC(C)(O)CC(=O)OC1C(OC1OC(CO)C(O)C(O)C1O)C2O)C(O)C7O)[C@@](C)(CO)C6CC[C@@]5(C)[C@]3(C)CC4` (stereo partly drawn): the GI50 with SF-539 was 13.5 µM (inactive); in the test on OVCAR-5, 8.91 µM (inactive); in the test with SNB-19, 11.4 µM (inactive); in the test on OVCAR-4, 6.25 µM (inactive); in the test with HCT-116 it was 7.11 µM (inactive); in the test with U-251 it was 8.71 µM (inactive). Moreover, the GI50 was 12.4 µM (inactive) in the test on SK-OV-3; 1.44 µM (inactive) in the test with HOP-62; 9.77 µM (inactive) with OVCAR-3; 8.32 µM (inactive) in the test on NCI/ADR-RES; 4.33 µM (inactive) in the test on NCI-H23; 7.87 µM (inactive) in the test on Malme-3M. In addition, the GI50 in the test with SR is 7 µM (inactive); in the test on CAKI-1 it was 6.41 µM (inactive); with T47D, 9.46 µM (inactive); with SNB-75, 11.5 µM (inactive); in the test with IGROV-1 it was 7.53 µM (inactive); in the test with UACC-257 it was 3.48 µM (inactive). Further, in the test on CCRF-CEM, the GI50 was 12.3 µM (inactive).

Consider `Cc1cc(C)n(CN(Cn2nc(C)cc2C)c2ccccc2)n1`, for which the GI50 is 19.4 µM (inactive) with SF-539; 30.1 µM (inactive) in the test on OVCAR-5; 45.5 µM (inactive) in the test with SNB-19; 20.3 µM (inactive) in the test with OVCAR-4; 19.8 µM (inactive) in the test on HCT-116; 17.8 µM (inactive) in the test on U-251. Also, the GI50 in the test on SK-OV-3 was 40.9 µM (inactive); with HOP-62 it was 23.7 µM (inactive); with OVCAR-3, 30.5 µM (inactive); in the test on A498, > 100 µM (inactive); in the test with NCI/ADR-RES, 20.8 µM (inactive); in the test on NCI-H23, 18.1 µM (inactive). Also, the GI50 in the test with Malme-3M is 22.8 µM (inactive); in the test on SR, 0.217 µM (active); in the test on CAKI-1, 20.4 µM (inactive); with T47D, 23.7 µM (inactive); in the test on IGROV-1 it was 25.5 µM (inactive); with UACC-257, 22.3 µM (inactive). In addition, the GI50 in the test with CCRF-CEM is 23.3 µM (inactive).

Turning to `CC(C)CCCC(C)[C@H]1CCC2[C@@H]3CCC4Cc5nc6c(nc5C[C@]4(C)C3CC[C@@]21C)CC1CC[C@@H]2C(C[C@@H](O)[C@@]3(C)C2C[C@@H]2OC4(CCC(C)CO4)C(C)[C@@H]23)[C@@]1(C)C6` (stereo partly drawn), the GI50 in the test with SF-539, in the test on OVCAR-5, with SNB-19, in the test on OVCAR-4, in the test on HCT-116 and with U-251 was > 100 µM (inactive) throughout. Besides, the GI50 in the test on SK-OV-3 was 94.4 µM (inactive); in the test with HOP-62, > 100 µM (inactive); in the test on OVCAR-3 it was > 100 µM (inactive); with NCI/ADR-RES, > 100 µM (inactive); with NCI-H23, > 100 µM (inactive); in the test on SR, > 100 µM (inactive). Besides, the GI50 in the test with T47D, in the test with SNB-75, in the test with IGROV-1, in the test on UACC-257 and in the test on CCRF-CEM was > 100 µM (inactive) in each case.

With `Nc1ncnc2oc(-c3cccs3)nc12`, the GI50 in the test with SF-539, in the test on OVCAR-5, in the test on SNB-19, with OVCAR-4, with HCT-116 and with U-251 was > 100 µM (inactive) each time. For the same molecule, the GI50 with HOP-62, in the test with OVCAR-3, in the test on A498, in the test with NCI/ADR-RES, with NCI-H23 and in the test on SR was > 100 µM (inactive) each time. The GI50 in the test on T47D, in the test on IGROV-1, in the test with UACC-257 and with CCRF-CEM was > 100 µM (inactive) in each case.

Consider `CC(C)c1cc(C(C)C)c(B(c2ccccc2)c2ccccc2)c(C(C)C)c1Br`, for which the GI50 in the test with SF-539, in the test with OVCAR-5, in the test on SNB-19, in the test on OVCAR-4, in the test with HCT-116 and in the test with U-251 was > 100 µM (inactive) each time. Further, the GI50 with SK-OV-3, with HOP-62, with OVCAR-3, in the test with A498, in the test on NCI/ADR-RES and in the test with NCI-H23 was > 100 µM (inactive) each time. The GI50 in the test on Malme-3M, in the test on SR, in the test with CAKI-1, with T47D, in the test on IGROV-1 and in the test with UACC-257 was > 100 µM (inactive) in each case. In addition, the GI50 in the test with CCRF-CEM was > 100 µM (inactive).

For the molecule `O=C(O)c1ccc2c(c1)CC1(C2)Cc2ccccc2C1=O` (stereo not drawn), the GI50 in the test with SF-539, in the test on OVCAR-5, with SNB-19, in the test with OVCAR-4, in the test with HCT-116 and with U-251 was > 100 µM (inactive) each time. The GI50 in the test on SK-OV-3, in the test on HOP-62, in the test on OVCAR-3, in the test with NCI/ADR-RES, in the test on NCI-H23 and in the test with Malme-3M was > 100 µM (inactive) throughout. Further, the GI50 in the test with SR, in the test on T47D, with SNB-75, with IGROV-1, in the test on UACC-257 and with CCRF-CEM was > 100 µM (inactive) each time.

Consider `CCCCc1ccc(-n2sc3ncccc3c2=O)cc1`, for which the GI50 was 21 µM (inactive) in the test with SF-539; 18.5 µM (inactive) in the test with OVCAR-5; 21.9 µM (inactive) with SNB-19; 13.6 µM (inactive) with OVCAR-4; 11.6 µM (inactive) in the test on HCT-116; 15.1 µM (inactive) with U-251. For the same molecule, the GI50 was 26.9 µM (inactive) in the test with SK-OV-3; 11 µM (inactive) in the test with HOP-62; 10.2 µM (inactive) with OVCAR-3; 14.4 µM (inactive) in the test on NCI/ADR-RES; 15.9 µM (inactive) in the test with NCI-H23; 3.96 µM (inactive) in the test on Malme-3M. Also, the GI50 in the test on SR is 4.72 µM (inactive); in the test with T47D, 13 µM (inactive); in the test on SNB-75, 22.4 µM (inactive); in the test with IGROV-1, 12.3 µM (inactive); in the test with UACC-257, 16.3 µM (inactive); in the test with CCRF-CEM, 2.17 µM (inactive).

Consider `OCC1OC(n2cnc3c2NC=NC[C@H]3O)CC1O` (stereo partly drawn), for which the GI50 was > 500 µM (inactive) in the test with OVCAR-5; 479 µM (inactive) with SNB-19; 470 µM (inactive) in the test with OVCAR-4; 483 µM (inactive) in the test on HCT-116; 480 µM (inactive) in the test with U-251; 467 µM (inactive) with SK-OV-3. Also, the GI50 is 417 µM (inactive) in the test on HOP-62; 497 µM (inactive) in the test with OVCAR-3; 422 µM (inactive) in the test with A498; 462 µM (inactive) with NCI/ADR-RES; 486 µM (inactive) in the test on NCI-H23; 458 µM (inactive) in the test with Malme-3M. Besides, the GI50 in the test on SR was 359 µM (inactive); in the test on T47D it was 258 µM (inactive); in the test with SNB-75, 337 µM (inactive); with IGROV-1 it was 450 µM (inactive); in the test with UACC-257 it was 407 µM (inactive); in the test on CCRF-CEM, 392 µM (inactive).

With `N#Cc1c(-c2ccc(Cl)cc2)c2c(n(C3OC(CO)C(O)C(O)C3O)c1=S)CCC2` (stereo not drawn), the GI50 with SF-539 was 19.2 µM (inactive); in the test with OVCAR-5, 41.3 µM (inactive); in the test on SNB-19, 22 µM (inactive); in the test on OVCAR-4 it was 34 µM (inactive); with HCT-116, 34.4 µM (inactive); in the test with U-251, 31 µM (inactive). The GI50 with SK-OV-3 was 39.5 µM (inactive); in the test on HOP-62, 23.6 µM (inactive); in the test on OVCAR-3, 28 µM (inactive); in the test with NCI/ADR-RES, 61.2 µM (inactive); in the test on NCI-H23, 25.4 µM (inactive); in the test with Malme-3M it was 26.2 µM (inactive). Further, the GI50 is 47 µM (inactive) in the test on SR; 30.2 µM (inactive) in the test with CAKI-1; 20.5 µM (inactive) in the test with T47D; 19.8 µM (inactive) with SNB-75; 34.1 µM (inactive) in the test on IGROV-1; 33.4 µM (inactive) in the test with UACC-257. Further, in the test on CCRF-CEM, the GI50 is 16.1 µM (inactive).

`COc1ccc(CCN2CCOCC2)cc1`: the GI50 in the test on SF-539, with OVCAR-5, in the test on SNB-19, in the test on HCT-116, with U-251 and in the test on SK-OV-3 was > 100 µM (inactive) throughout. The GI50 in the test on HOP-62 was > 100 µM (inactive); with OVCAR-3, 41.8 µM (inactive); with A498 it was > 100 µM (inactive); in the test with NCI/ADR-RES, > 100 µM (inactive); in the test with NCI-H23, > 100 µM (inactive); in the test on Malme-3M it was > 100 µM (inactive). Moreover, the GI50 with SR, with CAKI-1, in the test on T47D, in the test on IGROV-1, in the test on UACC-257 and in the test on CCRF-CEM was > 100 µM (inactive) each time.
